Laboratory results as given in paper PMC8230315, “A Pan-Inhibitor for Protein Arginine Methyltransferase Family Enzymes” (Biomolecules, 2021).

Columns and labels:
Type in all cases: biochemical
[1] = target: T1, PRMT4 (Homo sapiens, UniProt Q86X55); test: HotSpot radioisotope 3H-AdoMet methyltransferase assay, PRMT4; conditions: IC50 (nM) PRMT4, 10 doses, threefold serial dilution
T1 construct: purchased Reaction Biology
T1 sequence (Q86X55 1-608): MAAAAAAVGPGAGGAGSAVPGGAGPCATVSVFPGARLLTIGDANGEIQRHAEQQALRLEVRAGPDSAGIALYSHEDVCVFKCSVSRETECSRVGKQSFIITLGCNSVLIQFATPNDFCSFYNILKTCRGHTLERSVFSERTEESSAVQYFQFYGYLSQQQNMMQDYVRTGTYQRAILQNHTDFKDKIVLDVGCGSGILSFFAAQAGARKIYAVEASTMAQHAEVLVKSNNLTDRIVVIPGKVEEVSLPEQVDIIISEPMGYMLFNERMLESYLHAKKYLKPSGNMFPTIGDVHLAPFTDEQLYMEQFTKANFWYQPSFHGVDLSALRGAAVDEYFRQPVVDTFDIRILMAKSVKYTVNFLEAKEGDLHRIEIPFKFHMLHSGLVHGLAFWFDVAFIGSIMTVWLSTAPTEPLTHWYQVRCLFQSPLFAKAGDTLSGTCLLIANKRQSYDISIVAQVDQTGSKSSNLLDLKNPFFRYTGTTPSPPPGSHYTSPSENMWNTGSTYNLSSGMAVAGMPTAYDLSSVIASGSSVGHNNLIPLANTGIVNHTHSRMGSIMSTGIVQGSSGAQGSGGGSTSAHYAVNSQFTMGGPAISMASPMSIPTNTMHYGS
Protocol: (§1) Future studies will focus on obtaining structural information of II757 bound to PRMTs to inform how to connect to a substrate portion to increase both potency and selectivity for each PRMT.
(§2) Figure 6 Selectivity of II757 against the panel of PRMTs. II757 was tested in 10 doses with threefold serial dilution in the HotSpot methyltransferase assay at reaction biology. TEXT PRINTED IN THE PICTURE: II757: IC50 (nM) PRMT1: 16.4; IC50 (nM) PRMT3: 321; IC50 (nM) PRMT4: 5.05; IC50 (nM) PRMT5/MEP50 Complex: 18.2; IC50 (nM) PRMT5 (C449S)/MEP50: 36.6; IC50 (nM) PRMT6: 30.5; IC50 (nM) PRMT7: 555; IC50 (nM) PRMT8: 32.1

[2] = target: T2, PRMT5 (C449S)/MEP50 (Homo sapiens, UniProt O14744, C449S); test: HotSpot radioisotope 3H-AdoMet methyltransferase assay, PRMT5 (C449S)/MEP50
T2 construct: purchased Reaction Biology
Protocol: as §1, §2

[3] = target: T3, PRMT6 (Homo sapiens, UniProt Q96LA8); test: HotSpot radioisotope 3H-AdoMet methyltransferase assay, PRMT6
T3 construct: purchased Reaction Biology
Protocol: as §1, §2

T2 sequence (O14744 whole entry C449S): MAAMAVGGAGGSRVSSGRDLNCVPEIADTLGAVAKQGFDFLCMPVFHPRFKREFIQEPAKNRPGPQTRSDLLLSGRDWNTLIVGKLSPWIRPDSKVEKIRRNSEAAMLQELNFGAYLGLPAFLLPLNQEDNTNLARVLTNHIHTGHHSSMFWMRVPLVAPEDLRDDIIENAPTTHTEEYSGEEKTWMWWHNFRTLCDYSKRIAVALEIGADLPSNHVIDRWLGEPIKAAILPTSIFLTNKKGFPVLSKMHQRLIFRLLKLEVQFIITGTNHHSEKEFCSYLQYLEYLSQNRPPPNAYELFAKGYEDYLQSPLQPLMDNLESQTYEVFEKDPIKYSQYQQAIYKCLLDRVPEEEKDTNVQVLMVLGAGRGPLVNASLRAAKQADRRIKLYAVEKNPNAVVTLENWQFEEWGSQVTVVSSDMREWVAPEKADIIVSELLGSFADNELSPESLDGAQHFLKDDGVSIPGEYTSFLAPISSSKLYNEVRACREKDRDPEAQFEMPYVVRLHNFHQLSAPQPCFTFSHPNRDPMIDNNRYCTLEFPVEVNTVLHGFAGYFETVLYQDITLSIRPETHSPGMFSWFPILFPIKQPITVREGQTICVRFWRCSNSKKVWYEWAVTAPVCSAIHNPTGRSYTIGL
T2 sequence (Q9BQA1 whole entry partner): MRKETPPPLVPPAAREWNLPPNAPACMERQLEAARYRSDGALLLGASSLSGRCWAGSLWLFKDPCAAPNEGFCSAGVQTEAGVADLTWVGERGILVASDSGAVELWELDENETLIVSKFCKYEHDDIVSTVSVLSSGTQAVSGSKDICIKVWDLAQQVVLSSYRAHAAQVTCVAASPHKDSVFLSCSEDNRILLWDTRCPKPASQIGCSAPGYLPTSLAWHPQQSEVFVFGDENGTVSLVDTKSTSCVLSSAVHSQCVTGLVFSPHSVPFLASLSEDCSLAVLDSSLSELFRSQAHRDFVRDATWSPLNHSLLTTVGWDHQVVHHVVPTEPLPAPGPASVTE
T3 sequence (Q96LA8 whole entry): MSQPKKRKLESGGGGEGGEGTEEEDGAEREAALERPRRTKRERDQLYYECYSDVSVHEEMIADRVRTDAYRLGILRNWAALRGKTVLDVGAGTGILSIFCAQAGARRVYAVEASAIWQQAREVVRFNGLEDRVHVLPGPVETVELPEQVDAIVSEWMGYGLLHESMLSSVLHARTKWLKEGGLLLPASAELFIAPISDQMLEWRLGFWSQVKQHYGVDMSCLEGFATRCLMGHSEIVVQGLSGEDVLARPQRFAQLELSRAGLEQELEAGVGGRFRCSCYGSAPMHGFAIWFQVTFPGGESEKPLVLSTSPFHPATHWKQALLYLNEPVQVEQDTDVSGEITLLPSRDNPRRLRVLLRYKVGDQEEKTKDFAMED

## N=C(NCCCSC[C@H]1O[C@@H](n2cnc3c(N)ncnc32)[C@H](O)[C@@H]1O)Nc1cccc(Br)c1 [Compound 6l, 1-(3-((((2S,3S,4R,5R)-5-(6-amino-9H-purin-9-yl)-3,4-dihydroxytetrahydrofuran-2-yl)methyl)thio)propyl)-3-(3-bromophenyl)guanidine]
[1]
  IC50: 5 nM
[2]
  IC50: 36.6 nM
[3]
  IC50: 30.5 nM
